Reference: patent publication US10039729B2, “Use of kukoamine A and kukoamine B” (Tianjin Chase Sun Pharmaceutical Co., Ltd., priority 2010, dated 2018)

Columns and labels:
[1] = Affinity biosensor binding with immobilized lipid A; conditions: 100 μM operating solution, 5 μl loaded
Text: Immobilization of lipid A and CpG DNA: Using Optically-Based Affinity Biosensors technology, Lipid A, the biologic active centres of LPS, and CpG DNA were respectively, immobilized on the reacting surfaces of cuvettes in an IAsys plus affinity biosensor according to the manufacturer's instructions of IAsys Affinity Sensor. The end of hydrophobic side chain of lipid A was immobilized on cuvette with hydrophobic surface, and the phosphate group (active group of lipid A) at the other end was floating and exposing to the outside, which act as target spot of binding with active constituents for disease treatment in traditional Chinese medicine. The active constituents in solution were binded to lipid A through electrostatic interaction. […]
2.1.1 Methods: 500 g Lycii cortex was added with 5 L distilled water, soaked for 24 h, boiled at 100 for 1 h, filtered by coarse filter paper, and centrifuged at 8000 rpm/min for 30 min, and the supernatant was collected and concentrated to 1 L under reduced pressure. […] Their binding activity with lipid A and CpG DNA were detected according to methods of embodiment 1. […]
3.1 Methods: KA and KB were separately dissolved to make 100 μM operating solution; 5 μl of the solution was loaded; their binding activity with lipid A and CpG DNA were detected according to methods of embodiment 1.

[2] = tested on: RAW264.7 cells; assay: Binding of fluorescently-labeled LPS and CpG DNA with RAW264.7 cells (flow cytometry); type: cell-based, murine; conditions: 30 min; for fluorescence intensity of CpG DNA in RAW264.7 cells / fluorescence intensity of LPS in RAW264.7 cells: 200 μg/ml, p<0.01; for fluorescence intensity of CpG DNA in RAW264.7 cells: 5-FAM CpG DNA 10 μg/ml; for fluorescence intensity of LPS in RAW264.7 cells: FITC-labeled LPS 400 ng/ml
Procedure: 5.1 Methods: RAW264.7 cells were diluted to 1×10^6/ml in DMEM supplemented with 10% (v/v) NCS, added into 24-well cell culture plates, cultured at 37° C. in a 5% CO2 humidified incubator for 4 h, added with KA and KB (0, 200 μg/ml) after cells attachment, and then added with FITC-labeled LPS (final concentration of 400 ng/ml) and 5-FAM CpG DNA (final concentration of 10 μg/ml); at the same time, medium group without any reagent was established; subsequently, RAW264.7 cells were incubated for 30 min, washed thrice in PBS, resuspended with a pipet and transferred into EP tube, and immobilized with 4% paraform for 10 min; then cells were washed thrice in PBS, made into cell suspension, and detected by flow cytometry; the detections of each group were repeated thrice. Mean fluorescence intensity was expressed by means of Mean±standard deviation.
20.1 Methods: RAW264.7 cells was diluted to 1×10^6/ml in DMEM supplemented with 10% (v/v) NCS; 2 ml of the above suspension was added into 24-well cell culture plates and cultured at 37° C. in a 5% CO2 humidified incubator for 4 h; for the purpose of experiment three groups were established: medium group, stimulation group and KB treatment group; no reagent was added into medium group; stimulation group was added with FITC-LPS (200 ng/ml) and 5-FAM-CpG DNA (10 μg/ml); KB treatment group was added with KB (final concentrations of 50, 100 and 200 μM) in the meantime of adding LPS and CpG DNA; cells continued to be cultured for 30 min, washed thrice with PBS, and stored in dark place until the fluorescence intensity of cell membrane surfaces was detected by flow cytometry.

| SMILES | affinity with lipid A [1] | fluorescence intensity of CpG DNA in RAW264.7 cells [2] | fluorescence intensity of LPS in RAW264.7 cells [2] | mean fluorescence intensity (MFI) of cell membrane, 5-FAM-CpG DNA ([2]; KB 50, 100 and 200 μM, 5-FAM-CpG DNA 10 μg/ml) | mean fluorescence intensity (MFI) of cell membrane, FITC-LPS ([2]; KB 50, 100 and 200 μM, FITC-LPS 200 ng/ml) |
| --- | --- | --- | --- | --- | --- |
| O=C(CCc1ccc(O)c(O)c1)NCCCNCCCCNCCCNC(=O)CCc1ccc(O)c(O)c1 [KA, Kukoamine A] | high affinity | significantly decrease the fluorescence intensity | significantly decrease the fluorescence intensity |  |  |
| NCCCN(CCCCNCCCNC(=O)CCc1ccc(O)c(O)c1)C(=O)CCc1ccc(O)c(O)c1 [KB, Kukoamine B] | high affinity | significantly decrease the fluorescence intensity | significantly decrease the fluorescence intensity | decrease the MFI of cell membrane in a dose-dependent manner | decrease the MFI of cell membrane in a dose-dependent manner |
